Results from the supplement of paper PMC10627819.

How the values were obtained:
Test in all cases: fitness (endpoint OD595 vs no drug) (fraction); higher = more growth
S. aureus DSM 20231 = tested on: S. aureus DSM 20231
Method in brief: (§1)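 Bacterial fitness was scored as optical density at the stationary-phase transition relative to the robust mean of no-drug control wells. Scores are capped at 1. The growth data were OD595 readings every 30 min for 14 h at 37 °C, background-subtracted against the first reading, from 384-well plates inoculated at OD595 0.01 in TSB, LB Lennox or CY.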

S. aureus Newman = tested on: S. aureus Newman
Method in brief: as §1

S. pneumoniae D39V = tested on: S. pneumoniae D39V
Method in brief: as §1
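Note: OD595 on entry to stationary phase over no-drug wells; at most 1.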

CO[C@@]12[C@H](COC(N)=O)C3=C(C(=O)C(C)=C(N)C3=O)N1C[C@@H]1N[C@@H]12 [Mitomycin C] + CN[C@@H]1[C@H](O)[C@H](NC)[C@H]2O[C@@]3(O)C(=O)C[C@@H](C)O[C@H]3O[C@@H]2[C@H]1O [Spectinomycin]
fitness
Conditions | first compound 0.001075 µg/mL | first compound 0.00215 µg/mL | first compound 0.0043 µg/mL | first compound 0.0156 µg/mL | first compound 0.0312 µg/mL | first compound 0.0625 µg/mL
S. aureus DSM 20231, partner 4 µg/mL | – | – | – | 0.726 | 0.729 | 0.67
S. aureus DSM 20231, partner 8 µg/mL | – | – | – | 0.705 | 0.733 | 0.62
S. aureus DSM 20231, partner 16 µg/mL | – | – | – | 0.687 | 0.667 | 0.57
S. aureus Newman, partner 4 µg/mL | – | – | – | 0.653 | 0.656 | 0.496
S. aureus Newman, partner 8 µg/mL | – | – | – | 0.662 | 0.684 | 0.432
S. aureus Newman, partner 16 µg/mL | – | – | – | 0.603 | 0.541 | 0.33
S. pneumoniae D39V, partner 4 µg/mL | 0.899 | 0.814 | 0.746 | – | – | –
S. pneumoniae D39V, partner 8 µg/mL | 0.916 | 0.824 | 0.647 | – | – | –
S. pneumoniae D39V, partner 16 µg/mL | 0.839 | 0.784 | 0.628 | – | – | –

fitness, one replicate
Conditions | first compound 0.002 µg/mL | first compound 0.004 µg/mL | first compound 0.008 µg/mL | first compound 0.0156 µg/mL | first compound 0.0312 µg/mL | first compound 0.0625 µg/mL
S. aureus DSM 20231, partner 32 µg/mL | – | – | – | 0.614 | 0.475 | 0.258
S. aureus DSM 20231, partner 64 µg/mL | – | – | – | 0.0362 | 0.0235 | 0.0021
S. aureus Newman, partner 32 µg/mL | – | – | – | 0.294 | 0.158 | 0.034
S. aureus Newman, partner 64 µg/mL | – | – | – | 0.017 | 0.0135 | 0
S. pneumoniae D39V, partner 4 µg/mL | 0.903 | 0.851 | 0.638 | – | – | –
S. pneumoniae D39V, partner 8 µg/mL | 0.812 | 0.77 | 0.562 | – | – | –

CO[C@@]12[C@H](COC(N)=O)C3=C(C(=O)C(C)=C(N)C3=O)N1C[C@@H]1N[C@@H]12 [Mitomycin C] + CN[C@H](CC(C)C)C(=O)N[C@H]1C(=O)N[C@@H](CC(N)=O)C(=O)N[C@H]2C(=O)N[C@H]3C(=O)N[C@H](C(=O)N[C@H](C(=O)O)c4cc(O)cc(O)c4-c4cc3ccc4O)[C@H](O)c3ccc(c(Cl)c3)Oc3cc2cc(c3O[C@@H]2O[C@H](CO)[C@@H](O)[C@H](O)[C@H]2O[C@H]2C[C@](C)(N)[C@H](O)[C@H](C)O2)Oc2ccc(cc2Cl)[C@H]1O [Vancomycin]
Conditions | fitness
S. aureus DSM 20231, first compound 0.0156 µg/mL, partner 0.1875 µg/mL | 0.741
S. aureus DSM 20231, first compound 0.0156 µg/mL, partner 0.375 µg/mL | 0.719
S. aureus DSM 20231, first compound 0.0156 µg/mL, partner 0.75 µg/mL | 0.708
S. aureus DSM 20231, first compound 0.0312 µg/mL, partner 0.1875 µg/mL | 0.705
S. aureus DSM 20231, first compound 0.0312 µg/mL, partner 0.375 µg/mL | 0.762
S. aureus DSM 20231, first compound 0.0312 µg/mL, partner 0.75 µg/mL | 0.751
S. aureus DSM 20231, first compound 0.0625 µg/mL, partner 0.1875 µg/mL | 0.592
S. aureus DSM 20231, first compound 0.0625 µg/mL, partner 0.375 µg/mL | 0.624
S. aureus DSM 20231, first compound 0.0625 µg/mL, partner 0.75 µg/mL | 0.624
S. aureus Newman, first compound 0.0156 µg/mL, partner 0.1875 µg/mL | 0.747
S. aureus Newman, first compound 0.0156 µg/mL, partner 0.375 µg/mL | 0.708
S. aureus Newman, first compound 0.0156 µg/mL, partner 0.75 µg/mL | 0.733
S. aureus Newman, first compound 0.0312 µg/mL, partner 0.1875 µg/mL | 0.719
S. aureus Newman, first compound 0.0312 µg/mL, partner 0.375 µg/mL | 0.684
S. aureus Newman, first compound 0.0312 µg/mL, partner 0.75 µg/mL | 0.65
S. aureus Newman, first compound 0.0625 µg/mL, partner 0.1875 µg/mL | 0.56
S. aureus Newman, first compound 0.0625 µg/mL, partner 0.375 µg/mL | 0.415
S. aureus Newman, first compound 0.0625 µg/mL, partner 0.75 µg/mL | 0.411
S. pneumoniae D39V, first compound 0.001075 µg/mL, partner 0.125 µg/mL | 0.928
S. pneumoniae D39V, first compound 0.001075 µg/mL, partner 0.25 µg/mL | 0.629
S. pneumoniae D39V, first compound 0.001075 µg/mL, partner 0.5 µg/mL | 0.208
S. pneumoniae D39V, first compound 0.002 µg/mL, partner 0.03125 µg/mL | 0.951
S. pneumoniae D39V, first compound 0.002 µg/mL, partner 0.0625 µg/mL | 0.877
S. pneumoniae D39V, first compound 0.002 µg/mL, partner 0.125 µg/mL | 0.745
S. pneumoniae D39V, first compound 0.00215 µg/mL, partner 0.125 µg/mL | 0.869
S. pneumoniae D39V, first compound 0.00215 µg/mL, partner 0.25 µg/mL | 0.68
S. pneumoniae D39V, first compound 0.00215 µg/mL, partner 0.5 µg/mL | 0.202
S. pneumoniae D39V, first compound 0.004 µg/mL, partner 0.03125 µg/mL | 0.846
S. pneumoniae D39V, first compound 0.004 µg/mL, partner 0.0625 µg/mL | 0.836
S. pneumoniae D39V, first compound 0.004 µg/mL, partner 0.125 µg/mL | 0.667
S. pneumoniae D39V, first compound 0.0043 µg/mL, partner 0.125 µg/mL | 0.863
S. pneumoniae D39V, first compound 0.0043 µg/mL, partner 0.25 µg/mL | 0.592
S. pneumoniae D39V, first compound 0.0043 µg/mL, partner 0.5 µg/mL | 0.206
S. pneumoniae D39V, first compound 0.008 µg/mL, partner 0.03125 µg/mL | 0.727
S. pneumoniae D39V, first compound 0.008 µg/mL, partner 0.0625 µg/mL | 0.732
S. pneumoniae D39V, first compound 0.008 µg/mL, partner 0.125 µg/mL | 0.629
